Read-outs that look alike come from different tables or passages of the source. Non-standard residues stand in square brackets, D forms with d. Residues, ends and D or L forms follow the SMILES beside them. Cha = N[C@@H](CC1CCCCC1)C(=O)O
Experiments:
[1] = tested on: DR5; conditions: read-out: PADRE Class II Binding Affinities DR5
[2] = tested on: DR7; conditions: read-out: PADRE Class II Binding Affinities DR7
[3] = tested on: DQ3.1; conditions: for IC50: read-out: PADRE Class II Binding Affinities, Table VIII A

Compound	IC50 ([1]; Table VIII A) [nM]	IC50 ([2]; Table VIII A) [nM]	IC50 [3] [nM]	other results
CC(C)C[C@H](NC(=O)[C@@H](NC(=O)[C@H](C)NC(=O)[C@H](C)NC(=O)[C@H](C)NC(=O)[C@H](C)NC(=O)[C@H](CC1CCCCC1)NC(=O)[C@H](C)NC(=O)[C@@H](C)N)[C@@H](C)O)C(=O)N[C@@H](CCCCN)C(=O)N[C@@H](CCCCN)C(=O)N[C@@H](C)C(=O)N[C@H](C)C(N)=O [Peptide 906.40] (H-[dA]A[Cha]AAAATLKKA[dA]-NH2; N-terminus and C-terminus assumed)	16.7	556	36.6	
CC(C)C[C@H](NC(=O)[C@@H](NC(=O)[C@H](C)NC(=O)[C@H](C)NC(=O)[C@H](C)NC(=O)[C@H](C)NC(=O)[C@H](CC1CCCCC1)NC(=O)[C@H](C)NC(=O)[C@@H](C)N)[C@@H](C)O)C(=O)N[C@@H](CCC(N)=O)C(=O)N[C@@H](C)C(=O)N[C@@H](C)C(=O)N[C@H](C)C(N)=O [Peptide 906.36]	8.3		23.7	
CC(C)C[C@H](NC(=O)[C@@H](NC(=O)[C@H](CCC(=O)O)NC(=O)[C@H](C)NC(=O)[C@H](C)NC(=O)[C@H](C)NC(=O)[C@H](CC1CCCCC1)NC(=O)[C@H](C)NC(=O)[C@@H](C)N)[C@@H](C)O)C(=O)N[C@@H](CCCCN)C(=O)N[C@@H](C)C(=O)N[C@@H](C)C(=O)N[C@H](C)C(N)=O [Peptide 906.24]	11.1	373	46.6	
CC(C)C[C@H](NC(=O)[C@@H](NC(=O)[C@H](C)NC(=O)[C@H](C)NC(=O)[C@H](C)NC(=O)[C@H](C)NC(=O)[C@H](CC1CCCCC1)NC(=O)[C@H](C)NC(=O)[C@@H](C)N)[C@@H](C)O)C(=O)N[C@@H](CCCCN)C(=O)N[C@@H](C)C(=O)N[C@@H](CCC(N)=O)C(=O)N[C@H](C)C(N)=O [Peptide 906.48] (H-[dA]A[Cha]AAAATLKAQ[dA]-NH2; N-terminus and C-terminus assumed)	20	96.2	18.4	
CC(C)C[C@H](NC(=O)[C@@H](NC(=O)[C@H](C)NC(=O)[C@H](C)NC(=O)[C@H](C)NC(=O)[C@H](C)NC(=O)[C@H](CC1CCCCC1)NC(=O)[C@H](C)NC(=O)[C@@H](C)N)[C@@H](C)O)C(=O)N[C@@H](CCCCN)C(=O)N[C@@H](CCC(=O)O)C(=O)N[C@@H](C)C(=O)N[C@H](C)C(N)=O [Peptide 906.41] (H-[dA]A[Cha]AAAATLKEA[dA]-NH2; N-terminus and C-terminus assumed)		252		
CC(C)C[C@H](NC(=O)[C@@H](NC(=O)[C@H](C)NC(=O)[C@H](C)NC(=O)[C@H](C)NC(=O)[C@H](C)NC(=O)[C@H](CC1CCCCC1)NC(=O)[C@H](C)NC(=O)[C@@H](C)N)[C@@H](C)O)C(=O)N[C@@H](CCCCN)C(=O)N[C@H](C(=O)N[C@@H](C)C(=O)N[C@H](C)C(N)=O)C(C)C [Peptide 906.43] (H-[dA]A[Cha]AAAATLKVA[dA]-NH2; N-terminus and C-terminus assumed)	9.5	49	24.7	
CC(C)C[C@H](NC(=O)[C@@H](NC(=O)[C@H](C)NC(=O)[C@H](C)NC(=O)[C@H](C)NC(=O)[C@H](C)NC(=O)[C@H](CC1CCCCC1)NC(=O)[C@H](C)NC(=O)[C@@H](C)N)[C@@H](C)O)C(=O)N[C@@H](Cc1ccccc1)C(=O)N[C@@H](C)C(=O)N[C@@H](C)C(=O)N[C@H](C)C(N)=O [Peptide 906.38]	19.2	56.8		
CC(C)C[C@H](NC(=O)[C@@H](NC(=O)[C@H](C)NC(=O)[C@H](C)NC(=O)[C@H](C)NC(=O)[C@H](C)NC(=O)[C@H](CC1CCCCC1)NC(=O)[C@H](C)NC(=O)[C@@H](C)N)[C@@H](C)O)C(=O)N[C@@H](CCCNC(=N)N)C(=O)N[C@@H](C)C(=O)N[C@@H](C)C(=O)N[C@H](C)C(N)=O [Peptide 906.39] (H-[dA]A[Cha]AAAATLRAA[dA]-NH2; N-terminus and C-terminus assumed)			28.8	IC50 [1]: 4.3 nM; IC50 [2]: 86.2 nM
CC(C)[C@H](NC(=O)[C@@H](NC(=O)[C@H](C)NC(=O)[C@H](C)NC(=O)[C@H](C)NC(=O)[C@H](C)NC(=O)[C@H](CC1CCCCC1)NC(=O)[C@H](C)NC(=O)[C@@H](C)N)[C@@H](C)O)C(=O)N[C@@H](CCCCN)C(=O)N[C@@H](C)C(=O)N[C@@H](C)C(=O)N[C@H](C)C(N)=O [Peptide 906.32]			26	IC50 [1]: 4.2 nM; IC50 [2]: 58.1 nM
CC(C)C[C@H](NC(=O)[C@@H](NC(=O)[C@H](C)NC(=O)[C@H](C)NC(=O)[C@H](C)NC(=O)[C@H](C)NC(=O)[C@H](CC1CCCCC1)NC(=O)[C@H](C)NC(=O)[C@@H](C)N)[C@@H](C)O)C(=O)N[C@@H](CCCCN)C(=O)N[C@@H](C)C(=O)N[C@@H](CCC(=O)O)C(=O)N[C@H](C)C(N)=O [Peptide 906.47] (H-[dA]A[Cha]AAAATLKAE[dA]-NH2; N-terminus and C-terminus assumed)	25.5		60.2	
CC[C@H](C)[C@H](NC(=O)[C@@H](NC(=O)[C@H](C)NC(=O)[C@H](C)NC(=O)[C@H](C)NC(=O)[C@H](C)NC(=O)[C@H](CC1CCCCC1)NC(=O)[C@H](C)NC(=O)[C@@H](C)N)[C@@H](C)O)C(=O)N[C@@H](CCCCN)C(=O)N[C@@H](C)C(=O)N[C@@H](C)C(=O)N[C@H](C)C(N)=O [Peptide 906.34]	3.1	55.6	30.5	
CC(C)C[C@H](NC(=O)[C@@H](NC(=O)[C@H](Cc1ccccc1)NC(=O)[C@H](C)NC(=O)[C@H](C)NC(=O)[C@H](C)NC(=O)[C@H](CC1CCCCC1)NC(=O)[C@H](C)NC(=O)[C@@H](C)N)[C@@H](C)O)C(=O)N[C@@H](CCCCN)C(=O)N[C@@H](C)C(=O)N[C@@H](C)C(=O)N[C@H](C)C(N)=O [Peptide 906.27]	2.6	65.8	44.1	
CC(C)C[C@H](NC(=O)[C@@H](NC(=O)[C@H](CCC(N)=O)NC(=O)[C@H](C)NC(=O)[C@H](C)NC(=O)[C@H](C)NC(=O)[C@H](CC1CCCCC1)NC(=O)[C@H](C)NC(=O)[C@@H](C)N)[C@@H](C)O)C(=O)N[C@@H](CCCCN)C(=O)N[C@@H](C)C(=O)N[C@@H](C)C(=O)N[C@H](C)C(N)=O [Peptide 906.25]	3		42.5	
CC(C)C[C@H](NC(=O)[C@@H](NC(=O)[C@H](C)NC(=O)[C@@H](NC(=O)[C@H](C)NC(=O)[C@H](C)NC(=O)[C@H](CC1CCCCC1)NC(=O)[C@H](C)NC(=O)[C@@H](C)N)C(C)C)[C@@H](C)O)C(=O)N[C@@H](CCCCN)C(=O)N[C@@H](C)C(=O)N[C@@H](C)C(=O)N[C@H](C)C(N)=O [Peptide 906.21] (H-[dA]A[Cha]AAVATLKAA[dA]-NH2; N-terminus and C-terminus assumed)	3.2	42.4		
CC(C)C[C@H](NC(=O)[C@@H](NC(=O)[C@H](C)NC(=O)[C@H](C)NC(=O)[C@H](C)NC(=O)[C@H](C)NC(=O)[C@H](CC1CCCCC1)NC(=O)[C@H](C)NC(=O)[C@@H](C)N)[C@@H](C)O)C(=O)N[C@@H](CCCCN)C(=O)N[C@@H](Cc1ccccc1)C(=O)N[C@@H](C)C(=O)N[C@H](C)C(N)=O [Peptide 906.44] (H-[dA]A[Cha]AAAATLKFA[dA]-NH2; N-terminus and C-terminus assumed)	104	25		
CC(C)C[C@H](NC(=O)[C@@H](NC(=O)[C@H](C)NC(=O)[C@H](C)NC(=O)[C@H](C)NC(=O)[C@H](C)NC(=O)[C@H](CC1CCCCC1)NC(=O)[C@H](C)NC(=O)[C@@H](C)N)[C@@H](C)O)C(=O)N[C@@H](CCC(=O)O)C(=O)N[C@@H](C)C(=O)N[C@@H](C)C(=O)N[C@H](C)C(N)=O [Peptide 906.35]	10.5		39.5	
CC(C)C[C@H](NC(=O)[C@@H](NC(=O)[C@H](CC(N)=O)NC(=O)[C@H](C)NC(=O)[C@H](Cc1c[nH]c2ccccc12)NC(=O)[C@@H](NC(=O)[C@H](CC1CCCCC1)NC(=O)[C@H](CCCCN)NC(=O)[C@@H](C)N)C(C)C)[C@@H](C)O)C(=O)N[C@@H](CCCCN)C(=O)N[C@@H](C)C(=O)N[C@@H](C)C(=O)N[C@H](C)C(N)=O [Peptide 965.031]				IC50 ([1]; Table IX): 8.3 nM; IC50 ([1]; Table IX, listed as 965.032): 2.9 nM; IC50 ([2]; Table IX): 208 nM
C[C@H](NC(=O)[C@H](C)NC(=O)[C@H](C)NC(=O)[C@H](CC1CCCCC1)NC(=O)[C@H](C)NC(=O)[C@@H](C)N)C(=O)N[C@@H](C)C(=O)N[C@H](C(=O)N[C@@H](CCCCN)C(=O)N[C@@H](CCCCN)C(=O)N[C@@H](C)C(=O)N[C@@H](C)C(=O)N[C@H](C)C(N)=O)[C@@H](C)O [Peptide 906.29] (H-[dA]A[Cha]AAAATKKAA[dA]-NH2; N-terminus and C-terminus assumed)	7.7		283	Increase in DQ3.1 binding reactivity ([3]; relative to parent 760.57): no reactivity was gained
CC(C)C[C@H](NC(=O)[C@@H](NC(=O)[C@H](Cc1c[nH]cn1)NC(=O)[C@H](C)NC(=O)[C@H](CCCCN)NC(=O)[C@@H](NC(=O)[C@H](CC1CCCCC1)NC(=O)[C@H](CCCCN)NC(=O)[C@@H](C)N)C(C)C)[C@@H](C)O)C(=O)N[C@@H](CCCCN)C(=O)N[C@@H](C)C(=O)N[C@@H](C)C(=O)N[C@H](C)C(N)=O [Peptide 965.071]				IC50 ([1]; Table IX): 10.5 nM; IC50 ([1]; Table IX, listed as 965.072): 4.8 nM; IC50 ([2]; Table IX, listed as 965.072): 556 nM
CC(C)C[C@H](NC(=O)[C@@H](NC(=O)[C@H](C)NC(=O)[C@H](C)NC(=O)[C@H](C)NC(=O)[C@H](C)NC(=O)[C@H](CC1CCCCC1)NC(=O)[C@H](C)NC(=O)[C@@H](C)N)[C@@H](C)O)C(=O)N[C@@H](CCCCN)C(=O)N[C@@H](CCC(N)=O)C(=O)N[C@@H](C)C(=O)N[C@H](C)C(N)=O [Peptide 906.42] (H-[dA]A[Cha]AAAATLKQA[dA]-NH2; N-terminus and C-terminus assumed)	29.4		484	
